Source: ChEMBL document CHEMBL4043148, “Nitro-substituted tetrahydroindolizines and homologs: Design, kinetics, and mechanism of α-glucosidase inhibition” (Bioorg Med Chem Lett, 2017)
Calls of active or inactive are those of the source. The calls are words filed in the database; no cut-off is given here.

Columns and labels:
[1] = Inhibition of Saccharomyces cerevisiae alpha-glucosidase using 4-nitrophenyl alpha-D-glucopyranoside as substrate preincubated for 5 mins followed by substrate addition measured after 10 mins
Saccharomyces cerevisiae [2] = experiment: Inhibition of Saccharomyces cerevisiae alpha-glucosidase using 4-nitrophenyl alpha-D-glucopyranoside as substrate at 300 uM preincubated for 5 mins followed by substrate addition measured after 10 mins
Saccharomyces cerevisiae [3] = experiment: Inhibition of Saccharomyces cerevisiae alpha-glucosidase using 4-nitrophenyl alpha-D-glucopyranoside as substrate at 150 uM preincubated for 5 mins followed by substrate addition measured after 10 mins
Saccharomyces cerevisiae [4] = experiment: Reversible inhibition of Saccharomyces cerevisiae alpha-glucosidase up to 15 uM using 4-nitrophenyl alpha-D-glucopyranoside as substrate after 2 mins by Lineweaver-Burk plot analysis
Saccharomyces cerevisiae [5] = experiment: Mixed inhibition of Saccharomyces cerevisiae alpha-glucosidase assessed as Vmax for substrate up to 10 uM in presence of varying concentrations of 4-nitrophenyl alpha-D-glucopyranoside after 2 mins by Lineweaver-Burk plot analysis (reference value: 23.8 nmol/min/ml)
Saccharomyces cerevisiae [6] = experiment: Potency index, ratio of 1-deoxynojirimycin IC50 to compound IC50 for Saccharomyces cerevisiae alpha-glucosidase
Saccharomyces cerevisiae [7] = experiment: Mixed inhibition of Saccharomyces cerevisiae alpha-glucosidase assessed as Km for substrate up to 10 uM in presence of varying concentrations of 4-nitrophenyl alpha-D-glucopyranoside after 2 mins by Lineweaver-Burk plot analysis (reference value: 0.092 mM)
[8] = Mixed inhibition of Saccharomyces cerevisiae alpha-glucosidase assessed as enzyme inhibitor substrate constant up to 12.5 uM using 4-nitrophenyl alpha-D-glucopyranoside as substrate after 2 mins by Lineweaver-Burk plot analysis
Saccharomyces cerevisiae [9] = experiment: Mixed inhibition of Saccharomyces cerevisiae alpha-glucosidase assessed as free-enzyme inhibition constant up to 12.5 uM using 4-nitrophenyl alpha-D-glucopyranoside as substrate after 2 mins by Lineweaver-Burk plot analysis

| SMILES | IC50 [1] [µM] | further results |
| --- | --- | --- |
| COC(=O)C(c1c([N+](=O)[O-])cn2c1CCC2)S(C)(=O)=O (stereo not drawn) | 48 | – |
| COC(=O)C(c1c([N+](=O)[O-])cn2c1CCCC2)S(=O)(=O)Cc1ccccc1 (stereo not drawn) | 19.8 | – |
| CS(=O)(=O)Cc1c([N+](=O)[O-])cn2c1CCCCC2 | > 300 | inhibition (Saccharomyces cerevisiae [2]): inactive |
| CS(=O)(=O)Cc1c([N+](=O)[O-])cn2c1CCC2 | > 150 | inhibition (Saccharomyces cerevisiae [3]): 46% |
| COC(=O)C(c1c([N+](=O)[O-])cn2c1CCCC2)S(C)(=O)=O (stereo not drawn) | 8 | inhibition (Saccharomyces cerevisiae [4]): Active; Vmax (Saccharomyces cerevisiae [5]): 10.7 nmol/min/mL; Ratio IC50 (Saccharomyces cerevisiae [6]): 25; Km (Saccharomyces cerevisiae [7]): 140 µM; Ki [8]: 7.6 µM; fKi (Saccharomyces cerevisiae [9]): 3.6 µM |
| CS(=O)(=O)Cc1c([N+](=O)[O-])cn2c1CCCC2 | 72 | – |
| COC(=O)C(c1c([N+](=O)[O-])cn2c1CCCC2)S(=O)(=O)Cc1ccc(C)cc1 (stereo not drawn) | 65 | – |
| COC(=O)C(c1c([N+](=O)[O-])cn2c1CCCCC2)S(C)(=O)=O (stereo not drawn) | 124 | – |
| O=[N+]([O-])c1cn2c(c1CS(=O)(=O)Cc1ccccc1)CCCC2 | 29 | – |
| OC[C@H]1NC[C@H](O)[C@@H](O)[C@@H]1O [DUVOGLUSTAT] | 203 | – |
